Series [1] has as its target TACE enzyme (Homo sapiens, UniProt P78536). Nature of the series: Enzymatic test of TACE inhibition. Type of series: biochemical.
Protocol: (§1) The products are dissolved so as to obtain a concentration of 10 mM in DMSO.
The substrate is used at 40 μM.
Series [2] addresses MMP1 (Homo sapiens (Human), UniProt P03956). The experiment in a line: Selectivity test MMP1. Type of series: biochemical.
Protocol: as §1
The substrate is used at 40 μM.
(§2) The enzymes are purchased from Calbiochem.
Series [3] addresses ADAM10 (Homo sapiens (Human), UniProt O14672). Nature of the series: Selectivity test ADAM10. Type of series: biochemical.
Protocol: as §1
The substrate is used at 40 μM.
as §2
Series [4] concerns the target MMP3 (Homo sapiens (Human), UniProt P08254). Nature of the series: Selectivity test MMP3. Type of series: biochemical.
Protocol: as §1
The substrate is used at 40 μM.
as §2

Each structure is given as a SMILES string.

TACE enzyme, sequence (P78536 215-824 limits assumed): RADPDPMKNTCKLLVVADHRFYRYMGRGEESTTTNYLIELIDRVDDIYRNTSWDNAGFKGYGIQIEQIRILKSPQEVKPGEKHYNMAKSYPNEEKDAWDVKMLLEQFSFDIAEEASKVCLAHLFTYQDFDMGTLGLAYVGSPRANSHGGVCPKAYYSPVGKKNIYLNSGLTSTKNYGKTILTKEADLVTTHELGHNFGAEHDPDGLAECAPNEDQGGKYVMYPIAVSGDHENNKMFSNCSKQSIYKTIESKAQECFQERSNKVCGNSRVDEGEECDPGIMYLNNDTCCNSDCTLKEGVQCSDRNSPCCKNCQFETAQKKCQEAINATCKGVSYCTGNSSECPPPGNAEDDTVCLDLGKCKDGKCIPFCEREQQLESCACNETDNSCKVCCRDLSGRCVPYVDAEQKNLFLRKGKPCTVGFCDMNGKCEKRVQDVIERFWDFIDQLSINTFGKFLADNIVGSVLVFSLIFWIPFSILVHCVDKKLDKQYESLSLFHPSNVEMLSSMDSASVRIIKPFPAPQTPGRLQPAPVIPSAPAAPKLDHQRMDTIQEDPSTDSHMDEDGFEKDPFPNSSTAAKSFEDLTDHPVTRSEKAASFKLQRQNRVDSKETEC
ADAM10, sequence (O14672 214-748, species assumed): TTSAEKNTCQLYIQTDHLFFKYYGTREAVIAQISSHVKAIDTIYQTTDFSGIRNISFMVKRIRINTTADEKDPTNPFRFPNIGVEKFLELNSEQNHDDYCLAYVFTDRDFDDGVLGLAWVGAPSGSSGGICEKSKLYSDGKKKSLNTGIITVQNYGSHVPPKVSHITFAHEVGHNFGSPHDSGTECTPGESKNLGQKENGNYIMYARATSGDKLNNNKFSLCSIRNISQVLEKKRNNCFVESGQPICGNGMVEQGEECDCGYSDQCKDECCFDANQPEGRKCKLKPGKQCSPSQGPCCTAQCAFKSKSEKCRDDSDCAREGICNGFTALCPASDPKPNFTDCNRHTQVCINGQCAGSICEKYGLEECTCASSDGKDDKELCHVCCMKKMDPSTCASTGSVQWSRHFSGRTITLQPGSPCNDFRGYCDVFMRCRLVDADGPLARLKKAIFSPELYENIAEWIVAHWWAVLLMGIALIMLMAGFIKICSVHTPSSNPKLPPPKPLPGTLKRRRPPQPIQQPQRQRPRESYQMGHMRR
MMP1, sequence (P03956 100-469, species assumed): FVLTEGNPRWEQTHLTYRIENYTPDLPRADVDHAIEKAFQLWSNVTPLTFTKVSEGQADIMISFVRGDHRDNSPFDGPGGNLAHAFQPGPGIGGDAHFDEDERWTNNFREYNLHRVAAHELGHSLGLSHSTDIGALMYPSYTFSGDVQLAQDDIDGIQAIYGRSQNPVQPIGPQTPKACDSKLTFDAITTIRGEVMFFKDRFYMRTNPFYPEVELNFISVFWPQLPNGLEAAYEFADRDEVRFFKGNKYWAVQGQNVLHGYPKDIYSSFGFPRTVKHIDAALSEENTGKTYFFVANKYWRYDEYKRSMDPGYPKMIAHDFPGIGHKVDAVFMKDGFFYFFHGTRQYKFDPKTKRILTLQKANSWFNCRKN
MMP3, sequence (P08254 100-477, species assumed): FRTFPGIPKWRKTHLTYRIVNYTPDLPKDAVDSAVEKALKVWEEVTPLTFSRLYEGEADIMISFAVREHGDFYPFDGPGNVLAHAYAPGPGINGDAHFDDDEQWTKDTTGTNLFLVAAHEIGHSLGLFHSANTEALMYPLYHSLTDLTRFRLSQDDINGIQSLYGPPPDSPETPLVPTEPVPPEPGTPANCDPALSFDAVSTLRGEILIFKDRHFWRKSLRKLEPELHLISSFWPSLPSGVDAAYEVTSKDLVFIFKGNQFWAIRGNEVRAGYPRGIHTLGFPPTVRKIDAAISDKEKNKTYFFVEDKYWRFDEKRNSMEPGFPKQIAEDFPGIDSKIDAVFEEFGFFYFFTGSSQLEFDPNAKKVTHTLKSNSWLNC

Take `O=C(NC[C@@H](C(=O)NO)N1CCCCC1)c1ccc(OCc2cc(Cl)nc(Cl)c2)cc1` [Example 3, 4-(2,6-dichloropyridin-4-ylmethoxy)-N—((S)-2-hydroxycarbamoyl-2-piperidin-1-ylethyl)benzamide]: the “% TACE inhibition at 10 μM” value in series [1] is 97%. For the same molecule, half-maximal inhibition in series [1] (fluorescent substrate 40 μM) (IC50) was put at 255 nM.

For `CCN(CC)[C@@H](CNC(=O)c1ccc(OCc2cc(C)nc3ccccc23)cc1)C(=O)NO` [Example 11, N—((S)-2-diethylamino-2-hydroxycarbamoyl-ethyl)-4-(2-methylquinolin-4-ylmethoxy)benzamide], the “% TACE inhibition at 10 μM” value in series [1] was determined as 91%. Further, the half-maximal inhibitory concentration (IC50) in series [1] (fluorescent substrate 40 μM) and in series [1] (selectivity table) was 232 nM each time.

As to `Cc1cc(COc2ccc(C(=O)NC[C@@H](C(=O)NO)N3CCCCC3)cc2)c2ccccc2n1` [Example 2, N—((S)-2-hydroxycarbamoyl-2-piperidin-1-yl-ethyl)-4-(2-methylquinolin-4-ylmethoxy)benzamide], the concentration for half-maximal inhibition (IC50) (usually the point on the concentration scale where inhibition reaches its midpoint) in series [2] was determined as 9950 nM; in series [1] (fluorescent substrate 40 μM) it was 71 nM; in series [1] (selectivity table) it was 71 nM; in series [3] it was 6400 nM. Besides, the “% TACE inhibition at 10 μM” value in series [1] came out at 100%.

With `O=C(NC[C@@H](C(=O)NO)N1CCOCC1)c1ccc(OCc2ccncc2)cc1` [Example 9, N—((S)-2-hydroxycarbamoyl-2-morpholin-4-ylethyl)-4-(pyridin-4-ylmethoxy)benzamide], the “% TACE inhibition at 10 μM” value in series [1] is 92%. Also, the IC50 in series [1] (fluorescent substrate 40 μM) was 428 nM.

With `O=C(NC[C@@H](C(=O)NO)N1CCCCC1)c1ccc(OCc2ccnc(Br)c2)cc1` [Example 8, 4-(2-bromopyridin-4-ylmethoxy)-N—((S)-2-hydroxycarbamoyl-2-piperidin-1-ylethyl)benzamide], the melting point (usually the temperature, or range, at which the solid turns liquid) is 150 °C. In addition, the “% TACE inhibition at 10 μM” value in series [1] is on record as 91%.

Turning to `Cc1ccc(COc2ccc(C(=O)NC[C@@H](C(=O)NO)N3CCCCC3)cc2)c2ccccc12` [Example 7, N—((S)-2-hydroxycarbamoyl-2-piperidin-1-yl-ethyl)-4-(4-methylnaphthalen-1-ylmethoxy)benzamide], the “% TACE inhibition at 10 μM” value in series [1] is recorded as 90%. In addition, in series [1] (fluorescent substrate 40 μM), it took 91 nM to reach half-maximal inhibition (IC50).

`CC#CCOc1ccc(C(=O)NC[C@@H](C(=O)NO)N2CCCCC2)cc1` [Example 1, 4-but-2-ynyloxy-N—((S)-2-hydroxycarbamoyl-2-piperidin-1-ylethyl)benzamide]: the “% TACE inhibition at 10 μM” value in series [1] came out at 96%. This molecule also displayed an IC50 in series [1] (fluorescent substrate 40 μM) of 9 nM.

With `O=C(NC[C@@H](C(=O)NO)N1CCCCC1)c1ccc(OCc2ccnc(-c3ccccc3)c2)cc1` [Example 4, N—((S)-2-hydroxycarbamoyl-2-piperidin-1-yl-ethyl)-4-(2-phenylpyridin-4-ylmethoxy)benzamide], the “% TACE inhibition at 10 μM” value in series [1] is reported as 100%.

For the molecule `O=C(NC[C@@H](C(=O)NO)N1CCCCC1)c1ccc(OCc2ccncc2)cc1` [Example 5, N—((S)-2-hydroxycarbamoyl-2-piperidin-1-yl-ethyl)-4-(pyridin-4-ylmethoxy)benzamide], the “% TACE inhibition at 10 μM” value in series [1] is 93%. Moreover, the half-maximal inhibitory concentration (IC50) in series [1] (fluorescent substrate 40 μM) turned out to be 108 nM; in series [1] (selectivity table), 108 nM; in series [4], 6120 nM; in series [3], 3090 nM.

Take `O=C(NC[C@@H](C(=O)NO)N1CCOCC1)c1ccc(OCc2ccnc(-c3ccccc3C(F)(F)F)c2)cc1` [Example 10, N—((S)-2-hydroxycarbamoyl-2-morpholin-4-ylethyl)-4-[2-(2-trifluoromethylphenyl)pyridin-4-yl-methoxy]benzamide]: in series [1], the “% TACE inhibition at 10 μM” value is reported as 90%. Also, the midpoint of inhibition in series [1] (fluorescent substrate 40 μM), the IC50, lay at 900 nM.

These data come from US9266848B2, “4-alkoxy-N-(2-hydroxycarbamoyl-2-piperidinyl-ethyl)-benzamide compounds as selective TACE-inhibitors for the treatment of inflammatory diseases” (GALDERMA RESEARCH & DEVELOPMENT, priority 2009, dated 2016).
